Assay results taken from patent US9801901B2, “Alginate oligomers for use in overcoming multidrug resistance in bacteria” (priority 2009, dated 2017).
Where two headings read alike, the source gives them in different places. Marks after values point to notes of the source that are not given here.

Tests used:
[1] = system: strains of Klebsiella pneumoniae displaying MDR phenotypes; test: MIC-assay, Mueller-Hinton broth with G-block alginate, 384-well, OD600 (Table 10); type: cell-based; details: read-out: MIC
Text: Minimum inhibitory concentration (MICs) of different antibiotics for strains of Klebsiella pneumoniae displaying MDR phenotypes in the presence of varying concentrations of OligoCF-5/20 (0-10%). (MIC values are expressed in μg ml^−1).

[2] = system: strains of E. coli displaying MDR phenotypes; test: MIC-assay, Mueller-Hinton broth with G-block alginate, 384-well, OD600 (Table 11); type: cell-based; details: Escherichia coli, Escherichia coli (5702, Wales, V11) MDR, read-out: MIC
Text: (§1) Minimum inhibitory concentration (MICs) of different antibiotics for strains of E. coli and Providencia stuartii displaying MDR phenotypes in the presence of varying concentrations of OligoCF-5/20 (0-10%). (MIC values are expressed in μg ml^−1).

MDR Providencia stuartii = test: as above; type: cell-based; details: Providencia stuartii (IR57 India, V7) MDR
Text: as §1

[3] = system: Acinetobacter lwoffii (Egypt, V10); test: MIC-assay, Mueller-Hinton broth with G-block alginate, 384-well, OD600
[4] = system: Acinetobacter baumannii (Egypt, V9); test: as above
[5] = system: Staphylococcus aureus (MRSA) U50; test: MIC-assay, Mueller-Hinton broth with G-block alginate, 384-well, OD600 (Table 12); type: cell-based; details: MRSA 1040s, U50 MDR, read-out: MIC
Text: (§2) Minimum inhibitory concentration (MICs) of different antibiotics for strains of Streptococcus oralis and Staphylococcus aureus (MRSA) displaying MDR phenotypes in the presence of varying concentrations of OligoCF-5/20 (0-10%). (MIC values are expressed in μg ml^−1).

Streptococcus oralis = test: as above; type: cell-based; details: Streptococcus oralis (5610, V17) MDR, read-out: MIC
Text: as §2

[6] = system: Burkholderia cepacia (1322, V23); test: MIC-assay, Mueller-Hinton broth with G-block alginate, 384-well, OD600
[7] = system: Pseudomonas aeruginosa (R22, PSA, V1); test: as above
[8] = system: PA01 Pseudomonas aeruginosa ATCC 15692; test: MIC assay, two-fold antibiotic dilutions in CAMHB with alginate oligomer, no visible growth; type: cell-based; details: Pseudomonas aeruginosa, ATCC15692, Table 1, PA01, read-out: MIC
[9] = system: V12 5725 (Wales) Klebsiella pneumoniae; test: MIC assay, CAMHB with alginate oligomer, no visible growth; type: cell-based; details: Table 5, V12 MDR Kleb pneu
[10] = system: V10 (Egypt) Acinetobacter lwoffii; test: as above; type: cell-based; details: Table 5, V10 MDR Acin. lwoff
[11] = system: V9 (Egypt) Acinetobacter baumannii; test: as above; type: cell-based; details: Table 5, V9 MDR Acin. baum
[12] = system: Pseudomonas aeruginosa ATCC 39324, mucoid type strain (R79); test: as above; type: cell-based; details: Pseudomonas aeruginosa, ATCC39324, Table 1, R79, read-out: MIC
[13] = Klebsiella pneumoniae (5712, Wales, V12) MDR, G-block (OligoCF-5/20) 0%
[14] = Klebsiella pneumoniae (5712, Wales, V12) MDR, G-block (OligoCF-5/20) 2%
[15] = Klebsiella pneumoniae (5712, Wales, V12) MDR, G-block (OligoCF-5/20) 6%
[16] = Klebsiella pneumoniae (5712, Wales, V12) MDR, G-block (OligoCF-5/20) 10%
[17] = Klebsiella pneumoniae (IR25, India, V6) MDR, G-block (OligoCF-5/20) 0%
[18] = Klebsiella pneumoniae (IR25, India, V6) MDR, G-block (OligoCF-5/20) 2%
[19] = Klebsiella pneumoniae (IR25, India, V6) MDR, G-block (OligoCF-5/20) 6%
[20] = Klebsiella pneumoniae (IR25, India, V6) MDR, G-block (OligoCF-5/20) 10%
[21] = Klebsiella pneumoniae (K3, India, V8) MDR, G-block (OligoCF-5/20) 0%
[22] = Klebsiella pneumoniae (K3, India, V8) MDR, G-block (OligoCF-5/20) 2%
[23] = Klebsiella pneumoniae (K3, India, V8) MDR, G-block (OligoCF-5/20) 6%
[24] = Klebsiella pneumoniae (K3, India, V8) MDR, G-block (OligoCF-5/20) 10%
[25] = Table 9, G-block (OligoCF-5/20) 0%
[26] = Table 9, G-block (OligoCF-5/20) 2%
[27] = Table 9, G-block (OligoCF-5/20) 6%
[28] = Table 9, G-block (OligoCF-5/20) 10%
[29] = Table 8, G-block (OligoCF-5/20) 0%
[30] = Table 8, G-block (OligoCF-5/20) 2%
[31] = Table 8, G-block (OligoCF-5/20) 6%
[32] = Table 8, G-block (OligoCF-5/20) 10%

Measured: MIC

C[C@@H](O)[C@H]1C(=O)N2C(C(=O)O)=C(SCCN=CN)C[C@H]12 [Imipenem]
8 µg/mL: [1]; [21] | [1]; [24] | MDR Providencia stuartii; G-block (OligoCF-5/20) 10%
< 2 µg/mL: [1]; [13] | [1]; [14] | [1]; [15] | [1]; [16] | [1]; [17] | [2]; G-block (OligoCF-5/20) 0% | [2]; G-block (OligoCF-5/20) 2% | [2]; G-block (OligoCF-5/20) 6% | [2]; G-block (OligoCF-5/20) 10% | [3]; [25] | [3]; [26] | [3]; [27] | [3]; [28] | [4]; [26] | [4]; [28]
64 µg/mL: [7]; [31]
> 16 µg/mL: [6]; [29]
1 µg/mL: Streptococcus oralis; G-block (OligoCF-5/20) 6%
< 0.0312 µg/mL: [5]; G-block (OligoCF-5/20) 10% | Streptococcus oralis; G-block (OligoCF-5/20) 0% | Streptococcus oralis; G-block (OligoCF-5/20) 10%
0.0312 µg/mL: [5]; G-block (OligoCF-5/20) 6%
2 µg/mL: [1]; [18] | [1]; [19] | [1]; [20] | [4]; [25] | [4]; [27]
128 µg/mL: [7]; [29] | [7]; [30]
0.0625 µg/mL: [5]; G-block (OligoCF-5/20) 0% | [5]; G-block (OligoCF-5/20) 2%
16 µg/mL: [1]; [22] | [1]; [23] | MDR Providencia stuartii; G-block (OligoCF-5/20) 0% | MDR Providencia stuartii; G-block (OligoCF-5/20) 2% | MDR Providencia stuartii; G-block (OligoCF-5/20) 6% | Streptococcus oralis; G-block (OligoCF-5/20) 2% | [6]; [30] | [6]; [31] | [6]; [32] | [7]; [32]

CN(C)[C@@H]1C(O)=C(C(N)=O)C(=O)[C@@]2(O)C(O)=C3C(=O)c4c(O)cccc4[C@@](C)(O)[C@H]3[C@H](O)[C@@H]12 [Oxytetracycline]
2 µg/mL: [1]; [17] | [1]; [18] | [1]; [19] | [1]; [20] | [11]; Acinetobacter baumannii, OligoCF-5/20 0G, read-out: MIC | [11]; OligoCF-5/20 +2% G | [5]; G-block (OligoCF-5/20) 0% | [5]; G-block (OligoCF-5/20) 2% | [12]; OligoCF-5/20 +10% G
0.25 µg/mL: [2]; G-block (OligoCF-5/20) 10%
64 µg/mL: [6]; [31] | [6]; [32]
> 128 µg/mL: [7]; [29] | [7]; [30] | [7]; [31] | [7]; [32]
4^‡ μg/ml: [11]; OligoCF-5/20 +10% G
512 µg/mL: [1]; [21] | [1]; [22] | [1]; [23]
1020 µg/mL: [1]; [24]
0.5 µg/mL: [2]; G-block (OligoCF-5/20) 0% | [2]; G-block (OligoCF-5/20) 2% | [2]; G-block (OligoCF-5/20) 6% | [3]; [25] | [3]; [26] | [3]; [27] | [3]; [28] | [4]; [26] | [4]; [28] | [10]; Acinetobacter lwoffii, OligoCF-5/20 0G, read-out: MIC | [10]; OligoCF-5/20 +2% G | [10]; OligoCF-5/20 +6% G | [5]; G-block (OligoCF-5/20) 10% | Streptococcus oralis; G-block (OligoCF-5/20) 6%
128 µg/mL: MDR Providencia stuartii; G-block (OligoCF-5/20) 0% | MDR Providencia stuartii; G-block (OligoCF-5/20) 2% | MDR Providencia stuartii; G-block (OligoCF-5/20) 6% | MDR Providencia stuartii; G-block (OligoCF-5/20) 10% | [6]; [29] | [6]; [30]
1^† μg/ml: [11]; OligoCF-5/20 +6% G
4 µg/mL: [8]; OligoCF-5/20 +2% G | [8]; OligoCF-5/20 +6% G | [8]; OligoCF-5/20 +10% G | [12]; OligoCF-5/20 +2% G | [12]; OligoCF-5/20 +6% G
1 µg/mL: [1]; [13] | [1]; [14] | [1]; [15] | [1]; [16] | [4]; [25] | [4]; [27] | [9]; Klebsiella pneumoniae, OligoCF-5/20 0G, read-out: MIC | [9]; OligoCF-5/20 +2% G | [9]; OligoCF-5/20 +6% G | [9]; OligoCF-5/20 +10% G | [5]; G-block (OligoCF-5/20) 6%
0.25^† μg/ml: [10]; OligoCF-5/20 +10% G
< 0.25 µg/mL: Streptococcus oralis; G-block (OligoCF-5/20) 0% | Streptococcus oralis; G-block (OligoCF-5/20) 2% | Streptococcus oralis; G-block (OligoCF-5/20) 10%
8 µg/mL: [8]; OligoCF-5/20 0G | [12]; OligoCF-5/20 0G

CC[C@H]1OC(=O)[C@H](C)[C@@H](O[C@H]2C[C@@](C)(OC)[C@@H](O)[C@H](C)O2)[C@H](C)[C@@H](O[C@@H]2O[C@H](C)C[C@H](N(C)C)[C@H]2O)[C@](C)(O)C[C@@H](C)/C(=N\OCOCCOC)[C@H](C)[C@@H](O)[C@]1(C)O [Roxithromycin]
2 µg/mL: [4]; [28]
32 µg/mL: MDR Providencia stuartii; G-block (OligoCF-5/20) 2% | MDR Providencia stuartii; G-block (OligoCF-5/20) 6% | MDR Providencia stuartii; G-block (OligoCF-5/20) 10%
8 µg/mL: [4]; [25] | Streptococcus oralis; G-block (OligoCF-5/20) 0% | Streptococcus oralis; G-block (OligoCF-5/20) 2%
< 1 µg/mL: [3]; [26] | [3]; [27] | [3]; [28]
512 µg/mL: [1]; [14] | [1]; [15] | [1]; [16] | [1]; [21] | [2]; G-block (OligoCF-5/20) 0% | [2]; G-block (OligoCF-5/20) 10% | [5]; G-block (OligoCF-5/20) 6% | [6]; [29] | [6]; [30] | [7]; [31]
256 µg/mL: [1]; [13] | [1]; [22] | [2]; G-block (OligoCF-5/20) 6% | [5]; G-block (OligoCF-5/20) 10% | [6]; [31] | [7]; [32]
64 µg/mL: MDR Providencia stuartii; G-block (OligoCF-5/20) 0% | [6]; [32]
16 µg/mL: Streptococcus oralis; G-block (OligoCF-5/20) 10%
0.0312 µg/mL: Streptococcus oralis; G-block (OligoCF-5/20) 6%
> 1020 µg/mL: [1]; [18] | [1]; [20] | [1]; [23] | [1]; [24] | [5]; G-block (OligoCF-5/20) 0%
128 µg/mL: [2]; G-block (OligoCF-5/20) 2%
1020 µg/mL: [1]; [17] | [1]; [19] | [5]; G-block (OligoCF-5/20) 2%
> 512 µg/mL: [7]; [29] | [7]; [30]
4 µg/mL: [3]; [25] | [4]; [26] | [4]; [27]
